Measured values published in patent US20180235213A1, “PLANT HORMONE APPLICATION” (The State of Israel Ministry of Agriculture & Rural …, priority 2015, published 2018).
Entries after “also recorded” stand apart in the source; their conditions may differ.

Experiments:
[1] = system: Orobanche aegyptiaca seeds; test: Orobanche Germination Assay (biological activity after stress treatments); assay type: in vivo; conditions: with vs without HPC
Method: The implementation of the strigolactone analogs necessitates a degree of material stability, to ensure their activity on the plant under various growth conditions. Accordingly, the stability of the strigolactone analog GR24 was tested under different environmental conditions. GR24 in acetone stock solution of 5.6 mM was diluted in double distilled water (DDW) or HPC pre-made gel to a concentration of 0.56 μM in eppendorf tubes and was subjected to the following treatments:
GR24 solutions of 0.56 μM, diluted either in DDW or in HPC pre-made gel in eppendorf tubes were incubated in a dry block heater at temperatures of 4° C., 20° C., 40° C., 60° C. digitally set for periods of 3 h, 1 d, 2 d, 4 d, 5 d and 7 d under ambient light.
GR24 solutions of 0.56 μM, diluted either in DDW or in HPC pre-made gel, each in quartz tubes (15 replicates for each treatment) were exposed to UV radiation of λ=312 nm under UV lamp of 600 or 857 μE intensity for periods of 15 min, 30 min or 18 h.
Biological activity was determined by Orobanche Germination Assay: Approximately 30 to 50 seeds of Orobanche aegyptiaca were spread on a glass fiber filter paper disk (9-mm diameter) and put into sterile petri dishes (9-cm diameter) lined with Whatman filter paper wetted with 3 mL of demineralized water. Petri dishes were sealed with parafilm and incubated at 27° C. for preconditioning. After one week of preconditioning period, the glass fiber filter paper disks with Orobanche seeds were removed from the petri dish and dried for 20 min to remove surplus moisture. The disks were transferred to another petri dish within a filter paper ring (outer diameter of 9 cm; inner diameter of 8 cm) wetted with 0.9 mL of water, which maintained a moist environment during the germination bioassay. Forty microliters of the GR24 test solutions were added to the disks. Untreated GR24 at a 0.56 μM concentration was used as a positive control, water or HPC pre-made gel as negative controls. Germination percent was calculated using the counter cell analysis of the IMAGEJ (http://www.//rsbweb.nih.gov/ij/) software. Germinated seeds were distinguished from non-germinated seeds according to the seedling radicles, which are a few millimeters long and visible under a stereomicroscope (Leica MZFLIII, Leica Microsystems, GmbH).
For each of the GR24 treatments fifteen replicates with 30-40 seeds were tested per treatment with 40 μl of 0.56 μM GR24 test solutions pre-treated as described above. The experiment was repeated three times (n=450 seeds).
Next, GR24 was stabilized with Hydroxypropyl Cellulose (HPC), which is a […] medium. Granular HPC [Sigma-Aldrich Israel Ltd., CAS-No. 9004-64-2] […]

Koroneiki olives = test: EGO10 collar and granules application to Koroneiki olives; assay type: in vivo, Olea europaea L.; conditions: collar of 50 μM
Method: Since Koroneiki olives are one of the most abundant cultivars worldwide, the effect of application of collar of 50 μM and granules that release 3×10^−8 M on development of side branches in this cultivar was examined.

olive cuttings = test: Plate bioassay of bud outgrowth in olive cuttings; assay type: in vivo, Olea europaea L.
Method: For the purpose of determining whether the active SL analogs may be used as effective repressors of shoot branching by application on the stem itself, a bioassay examining SL analogs effect on shoot branching in vitro was established. Olive seedlings were grown in greenhouse under controlled temperature of 23° C. Partitioned plates containing ½ Murashige and Skoog (MS) solidified with 1.5% w/v agar were prepared. After solidification, the center plastic area (2 cm) of the plate was removed by scalpel. Olive seedlings were cut between the second and fourth node, and the cuttings were surface-sterilized by 70% ethanol and 1% sodium hypochlorite treatment, and then placed on the plates containing the agar media. The SL analog EGO10 was mixed with ½MS in agar, cubes were cut (1.5 cm area) and positioned at the base of the cutting in the plates (FIG. 4A). Olive seedlings treated with acetone at the same concentrations used in the EGO10 treatments represented the experimental controls. Plates were sealed in two sides only by saran wrap in order to prevent accumulation of gases. The plates were positioned in an upright 90° position and incubated at 22° C. under a photoperiod of 16 hours light followed by 8 hours dark. Photographs were taken every 3 days until day 12 by binocular. Each treatment included eight replicates. […] Bud outgrowth was measured (FIG. 4C) by Image J software and the length of the bud minus its length at the first day following application was calculated. Means of replicates were subjected to statistical analysis by using the IMP statistical package.
The ability of EGO10, applied to olive seedling cuttings through the bark of the stem, to reduce bud outgrowth was examined. An agar tube containing EGO10 was placed on the bark of the cutting (FIG. 6A). Additionally, for increased penetration of the hormone analog, the bark was scratched and the ability of EGO10 to reduce bud outgrowth in comparison to EGO10 application to non-scratched bark was tested.
As a next step in the development of SL application technology, different substances that can serve as media supporting the diffusion of SLs though the bark of plants were examined. As agar usually contains nutritional compounds, bacteria and fungi can easily contaminate agar cubes. Therefore, other substances were examined, as described hereinbelow. Experiments were performed similarly to those described in Example 3 above, by application of EGO10 in different media on the cutting bark, in plates. Bud outgrowth was monitored as described above.
Based on the results above, 30% HPC were mixed with two different concentrations of EGO10; 5 and 10 μM, and applied on the stem of olive seedling (FIG. 10). Bud outgrowth was monitored as described above and the results were compared to those obtained upon using agar cubes (described in Example 3), which served as a positive control.
In an attempt to improve HPC suitability to the examined system, HPC was mixed with glycerin in the ratio of 3:1. Glycerin, as a known humectant, has the capability to moist materials. In exemplary procedures, 5 μM EGO10 were added to the HPC and glycerin mixture, and then placed on the bark of olive cuttings. Bud outgrowth was monitored as described above.
A number of additional possible substances suitable as media for EGO10 application were screened, including polyvinyl acetate (PVAc), polyvinyl pyrrolidone (PVP) and hydroxy ethyl cellulose (HEC). The polymers were used at concentrations of 30% in water, however, as 30% PVP was not solid, it could not be tested. Accordingly, HEC and PVAc were examined for their ability to support EGO10 activity. Bud outgrowth was calculated as described above.

CC1=C[C@H](O/C=C2\Cc3c(n(C)c4ccccc34)C2=O)OC1=O [EGO10]
Orobanche germination % with HPC at 60° C. ([1]; 60° C., 0 and 24 hours): increased biological activity
Orobanche germination % with HPC at different pH ([1]; basic and acidic pH (pH 4, pH 7, pH 10)): increased biological activity
side branches development (Koroneiki olives): effective in preventing side branches development
bud outgrowth (olive cuttings; 5 μM in 30% HEC on the bark): did not
bud outgrowth (olive cuttings; 5 μM in 30% PVAc on the bark): supported EGO10 activity of bud outgrowth inhibition
bud outgrowth (olive cuttings; 5 μM in HPC mixed with glycerin (3:1) on the bark, until day 12): inhibited bud outgrowth throughout the experimental period
bud outgrowth (olive cuttings; 5 μM in PVA:HEC (2:1) on the bark): did not sufficiently support EGO10 ability to act to inhibit bud outgrowth
bud outgrowth (olive cuttings; 5 μM in PVA:PVP (2:1) on the bark): did not sufficiently support EGO10 ability to act to inhibit bud outgrowth
bud outgrowth (olive cuttings; 5 μM in agar cube at the base of the cutting, day 12, vs acetone control): marked reduction in bud outgrowth
bud outgrowth (olive cuttings; 5 μM in agar cube on the bark, 96, 168 and 264 h, vs acetone control): significant reduction in bud outgrowth; also recorded: reduced bud outgrowth throughout the entire experimental period
bud outgrowth (olive cuttings; 5 and 10 μM in 30% HPC on the stem): reduced bud outgrowth until day 4 post application
